Results on six compounds are retold here after BindingDB's records for doi:10.1016/j.bmcl.2005.07.060 (Universidad De Buenos Aires, 2005).

Molecules are shown by their SMILES. pIC50: −log10 of the molar value.

This assay addresses farnesyl pyrophosphate synthase (Trypanosoma cruzi). Kind of assay: Inhibitory concentration against Trypanosoma cruzi farnesyl pyrophosphate synthase (TcFPPS).

In general, pIC50 refers to the negative decadic logarithm of the IC50, by convention in mol/L. For the compound `CCC(N)(P(=O)(O)O)P(=O)(O)O` [(1-Amino-1-phosphono-propyl)-phosphonic acid], the pIC50 is 3.83.

On to `CCCC(N)(P(=O)(O)O)P(=O)(O)O` [(1-Amino-1-phosphono-butyl)-phosphonic acid], for which the pIC50 is 4.51.

In the case of `CCCCCC(N)(P(=O)(O)O)P(=O)(O)O` [(1-Amino-1-phosphono-hexyl)-phosphonic acid], the pIC50 is 6.42.

Compound `CC(N)(P(=O)(O)O)P(=O)(O)O` [(1-Amino-1-phosphono-ethyl)-phosphonic acid] had a pIC50 of 4.18.

For `CCCCCCC(N)(P(=O)(O)O)P(=O)(O)O` [(1-Amino-1-phosphono-heptyl)-phosphonic acid], the pIC50 was 5.45.

Consider `CCCCC(N)(P(=O)(O)O)P(=O)(O)O` [(1-Amino-1-phosphono-pentyl)-phosphonic acid], for which the pIC50 is 5.41.
